We go through 22 molecules from patent publication US20240083845A1 (priority 2020, published 2024).

The target in the experiment is SARS-CoV-2 Mpro (Severe acute respiratory syndrome coronavirus 2, UniProt P0DTD1). Nature of the experiment: SARS-CoV-2 Mpro enzyme assay (FRET). It is filed as biochemical. Particulars: FRET substrate Dabcyl-KTSAVLQSGFRKM-E(Edans)-Amide, 20 nM enzyme, 30 min preincubation at 30° C., mean n=2; read-out: SARS-CoV-2 Mpro enzyme assay pKi (converted).
For `CC[C@@H](CC(=O)N[C@@H](CC(C)(C)C)C(=O)NC(C[C@@H]1CCNC1=O)C(=O)C(=O)NC1CC1)c1ccccc1` (single isomer, unassigned) [Example 14], the Ki is 0.00794 µM. On to `CC[C@H](CC(=O)N[C@@H](CC(C)(C)C)C(=O)NC(C[C@@H]1CCNC1=O)C(=O)C(=O)NC1CC1)c1ccccc1` (single isomer, unassigned) [Example 15], for which the Ki is 0.01 µM. For `CC(C)(C)C[C@H](NC(=O)C[C@@H](c1ccccc1)C(F)(F)F)C(=O)NC(C[C@@H]1CCNC1=O)C(=O)C(=O)NC1CC1` (single isomer, unassigned) [Example 16] the value was 0.02 µM. For `CC(C)(C)C[C@H](NC(=O)C[C@H](c1ccccc1)C(F)(F)F)C(=O)NC(C[C@@H]1CCNC1=O)C(=O)C(=O)NC1CC1` (single isomer, unassigned) [Example 17] the value was 0.0126 µM; for `NC(=O)C(=O)C(C[C@@H]1CCNC1=O)NC(=O)[C@H](CC1CC1)NC(=O)/C=C/c1ccc(Cl)cc1F` (stereo partly drawn) [Example 1, 3-((S)-2-((E)-3-(4-chloro-2-fluorophenyl)acrylamido)-3-cyclopropylpropanamido)-2-oxo-4-((S)-2-oxopyrrolidin-3-yl)butanamide], 0.0126 µM. `NC(=O)C(=O)C(C[C@@H]1CCNC1=O)NC(=O)[C@H](CC1CC1)NC(=O)/C=C/c1ccccc1` (stereo partly drawn) [Example 2, 3-((S)-2-cinnamamido-3-cyclopropylpropanamido)-2-oxo-4-((S)-2-oxopyrrolidin-3-yl)butanamide]: the Ki is 0.02 µM. For `NC(=O)C(=O)C(C[C@@H]1CCNC1=O)NC(=O)[C@H](CC1CC1)NC(=O)OCc1ccccc1` (stereo partly drawn) [Example 3, benzyl ((2S)-1-((4-amino-3,4-dioxo-1-((S)-2-oxopyrrolidin-3-yl)butan-2-yl)amino)-3-cyclopropyl-1-oxopropan-2-yl)carbamate] the value was 0.0251 µM; for `NC(=O)C(=NO)C(C[C@@H]1CCNC1=O)NC(=O)[C@H](CC1CC1)NC(=O)/C=C/c1ccc(Cl)cc1F` (stereo partly drawn) [Example 4, 3-((S)-2-((E)-3-(4-chloro-2-fluorophenyl)acrylamido)-3-cyclopropylpropanamido)-2-(hydroxyimino)-4-((S)-2-oxopyrrolidin-3-yl)butanamide], 1 µM; for `CC(C)(C)NC(=O)C(=O)C(C[C@@H]1CCNC1=O)NC(=O)[C@H](CC1CC1)NC(=O)/C=C/c1ccc(Cl)cc1F` (stereo partly drawn) [Example 5, N-(tert-butyl)-3-((S)-2-((E)-3-(4-chloro-2-fluorophenyl)acrylamido)-3-cyclopropylpropanamido)-2-oxo-4-((S)-2-oxopyrrolidin-3-yl)butanamide], 0.501 µM. For `NC(=O)C(=O)C(CC1CC1)NC(=O)[C@H](CC1CC1)NC(=O)/C=C/c1ccc(Cl)cc1F` (stereo partly drawn) [Example 6, 3-((S)-2-((E)-3-(4-chloro-2-fluorophenyl)acrylamido)-3-cyclopropylpropanamido)-4-cyclopropyl-2-oxobutanamide], the Ki was 5.01 µM. As for `NC(=O)C(=O)C(CC1CCCC1)NC(=O)[C@H](CC1CC1)NC(=O)/C=C/c1ccc(Cl)cc1F` (stereo partly drawn) [Example 7, 3-((S)-2-((E)-3-(4-chloro-2-fluorophenyl)acrylamido)-3-cyclopropylpropanamido)-4-cyclopentyl-2-oxobutanamide], the Ki is 7.94 µM. For `NC(=O)C(=O)C(C[C@@H]1CCNC1=O)NC(=O)[C@H](CC1CC1)NC(=O)CCc1ccccc1` (stereo partly drawn) [Example 8, 3-((S)-3-cyclopropyl-2-(3-phenylpropanamido)propanamido)-2-oxo-4-((S)-2-oxopyrrolidin-3-yl)butanamide] the value was 0.0501 µM; for `CC(C)(C)C[C@H](NC(=O)/C=C/c1ccc(Cl)cc1Cl)C(=O)NC(C#N)C[C@@H]1CCNC1=O` (stereo partly drawn) [Example 9, (2S)-N-(1-Cyano-2-((S)-2-oxopyrrolidin-3-yl)ethyl)-2-((E)-3-(2,4-dichlorophenyl)acrylamido)-4,4-dimethylpentanamide], 0.398 µM. For `CC(C)(C)C[C@H](NC(=O)/C=C/c1ccc(Cl)cc1Cl)C(=O)NC(C[C@@H]1CCNC1=O)C(=O)C(=O)NC1CC1` (stereo partly drawn) [Example 10, (2S)-N-(4-(Cyclopropylamino)-3,4-dioxo-1-((S)-2-oxopyrrolidin-3-yl)butan-2-yl)-2-((E)-3-(2,4-dichlorophenyl)acrylamido)-4,4-dimethylpentanamide] the value was 0.00631 µM; for `CC(C)(C)C[C@H](NC(=O)/C=C/c1ccc(Cl)cc1F)C(=O)NC(C[C@@H]1CCNC1=O)C(=O)C(=O)NC1CC1` (stereo partly drawn) [Example 11, (2S)-2-((E)-3-(4-chloro-2-fluorophenyl)acrylamido)-N-(4-(cyclopropylamino)-3,4-dioxo-1-((S)-2-oxopyrrolidin-3-yl)butan-2-yl)-4,4-dimethylpentanamide], 100000 µM; for `C[C@@H](CC(=O)N[C@@H](CC(C)(C)C)C(=O)NC(C[C@@H]1CCNC1=O)C(=O)C(=O)NC1CC1)c1ccccc1` (stereo partly drawn) [Example 12, (2S)-N-(4-(cyclopropylamino)-3,4-dioxo-1-((S)-2-oxopyrrolidin-3-yl)butan-2-yl)-4,4-dimethyl-2-((S)-3-phenylbutanamido)pentanamide], 0.0158 µM. Turning to `C[C@H](CC(=O)N[C@@H](CC(C)(C)C)C(=O)NC(C[C@@H]1CCNC1=O)C(=O)C(=O)NC1CC1)c1ccccc1` (stereo partly drawn) [Example 13, (2S)-N-(4-(cyclopropylamino)-3,4-dioxo-1-((S)-2-oxopyrrolidin-3-yl)butan-2-yl)-4,4-dimethyl-2-((R)-3-phenylbutanamido)pentanamide], the Ki is 0.0158 µM. For `CC(C)C[C@H](NC(=O)/C=C/c1ccc(Cl)cc1F)C(=O)NC(C[C@@H]1CCNC1=O)C(=O)C(N)=O` (stereo partly drawn) [Example 18, (2S)-N-(4-amino-3,4-dioxo-1-((S)-2-oxopyrrolidin-3-yl)butan-2-yl)-2-((E)-3-(4-chloro-2-fluorophenyl)acrylamido)-4-methylpentanamide] the value was 0.0126 µM; for `CCNC(=O)C(=O)C(C[C@@H]1CCNC1=O)NC(=O)[C@H](CC1CC1)NC(=O)/C=C/c1ccc(Cl)cc1F` (stereo partly drawn) [Example 19, 3-((S)-2-((E)-3-(4-chloro-2-fluorophenyl)acrylamido)-3-cyclopropylpropanamido)-N-ethyl-2-oxo-4-((S)-2-oxopyrrolidin-3-yl)butanamide], 0.0126 µM. In the case of `NC(=O)C(=O)C(C[C@@H]1CCNC1=O)NC(=O)[C@H](CC1CC1)NC(=O)/C=C/c1ccc(Cl)cc1Cl` (stereo partly drawn) [Example 20, 3-((S)-3-cyclopropyl-2-((E)-3-(2,4-dichlorophenyl)acrylamido)propanamido)-2-oxo-4-((S)-2-oxopyrrolidin-3-yl)butanamide], the Ki is 0.1 µM.

Regarding `O=C(/C=C/c1ccc(Cl)cc1F)N[C@@H](CC1CC1)C(=O)NC(C[C@@H]1CCNC1=O)C(=O)C(=O)NC1CC1` (stereo partly drawn) [Example 21, 3-((S)-2-((E)-3-(4-chloro-2-fluorophenyl)acrylamido)-3-cyclopropylpropanamido)-N-cyclopropyl-2-oxo-4-((S)-2-oxopyrrolidin-3-yl)butanamide], the Ki is 0.00794 µM. Regarding `CC(C)(C)C[C@H](NC(=O)/C=C/c1ccc(Cl)cc1F)C(=O)NC(C[C@@H]1CCNC1=O)C(=O)C(N)=O` (stereo partly drawn) [Example 22, (2S)-N-(4-amino-3,4-dioxo-1-((S)-2-oxopyrrolidin-3-yl)butan-2-yl)-2-((E)-3-(4-chloro-2-fluorophenyl)acrylamido)-4,4-dimethylpentanamide], the Ki was 0.00631 µM.
